From article PMC6107105, “Update on drug development targeting parasite cysteine proteases” (PLoS Neglected Tropical Diseases, 2018)

Legend:
dogs = assay: 7-day non-GLP toxicity study in dogs (SRI study M138-00); format: in vivo; conditions: orally as solid in gelatin capsules, 100 mg/kg daily for 7 days, 2 dogs
rats = assay: 7-Day non-GLP Toxicity Study in Rats (SRI study M587-08); format: in vivo; conditions: 50 or 150 mg/Kg/day for 7 days
Sprague-Dawley rats [1] = assay: Acute intravenous non-GLP toxicity study in rats (SRI study M001-98); format: in vivo; conditions: male and female Sprague-Dawley rats
Sprague-Dawley rats [2] = assay: 14-day GLP toxicity study in Sprague-Dawley rats (SRI study M602-08); format: in vivo
cynomolgus monkeys = assay: Pilot multiple dose safety/pharmacokinetic 7-day non-GLP study in cynomolgus monkeys (SRI study M158-01); format: in vivo; conditions: 200 mg/Kg once daily for 7 days
[3] = set-up: species or system NHPs; conditions: in vivo, 200 mg/kg

For CN1CCN(C(=O)N[C@@H](Cc2ccccc2)C(=O)N[C@H](/C=C/S(=O)(=O)c2ccccc2)CCc2ccccc2)CC1.Cl [K777 HCl], the mortality or morbidity (dogs) was “K777 HCl was administered orally as a solid in gelatin capsules to 2 dogs (1 male and 1 female) at 100 mg/kg daily for 7 days. No mortality or morbidity was observed in this study”, the tolerability (rats; male and female rats, SRI study M587-08) was “well tolerated” and the “liver effects at the doses employed” value (rats; rats) was “mild and transient”. The “target organ of toxicity” value (rats; rats) was “liver”, the “dose producing mortality and adverse clinical signs” value (Sprague-Dawley rats [1]) was “K777 HCl administered IV to male and female Sprague-Dawley rats produced mortality and adverse clinical signs at 150 mg/Kg and higher” and the “mortality or treatment-related adverse clinical signs” value (Sprague-Dawley rats [2]; 14-day, any dose level, SRI study M602-08) was “No mortality or treatment-related adverse clinical signs were observed following the administration of K777 HCl at any dose level”. The “changes in clinical chemistry parameters (total protein, potassium, phosphorus, creatinine increases; blood urea nitrogen decrease)” value (Sprague-Dawley rats [2]; rat, in vivo) was “not considered biologically significant”, the “effects on hematology, urinalysis, or ophthalmology parameters” value (Sprague-Dawley rats [2]; rat, in vivo) was “no treatment-related adverse effects” and the histopathology (Sprague-Dawley rats [2]; rat, in vivo) was “No treatment-related histopathological abnormalities”. The mortality or morbidity (cynomolgus monkeys) was “No mortality or morbidity was observed following the administration of K777 HCl at 200 mg/Kg once daily for 7 days”, the AUC [3] was 32500 ng·h/mL and the Cmax [3] was 4500 ng/mL. For the same molecule, the Tmax [3] was 4 h and the half-life [3] was ~4 h.
